Structures can show the parent of a compound that is named as a salt. One block for each compound: values may come before it.
Columns and labels:
[1] = system: subjects with gating mutations; experiment: Clinical trial: absolute change in SwCl at 12 weeks in subjects with gating mutations on stable ivacaftor treatment; safety and tolerability; format: in vivo, human; conditions: for Absolute change in SwCl at Week 12: LS mean (SE): subjects with gating mutations
Protocol: In a clinical trial, a comparative study was conducted on absolute changes in SwCl at 12 weeks in subjects with gating mutations where were on stable treatment with ivacaftor.

[2] = Relative stability of solid (polymorphic) forms of Compound II; format: physicochemical
[3] = Comparison of calcium salt hydrate forms: dissolution, solubility, exposure; format: physicochemical; conditions: than the other calcium salt hydrate forms

Compound: [2H]C([2H])([2H])C(c1cc(C(C)(C)C)c(NC(=O)c2c[nH]c3ccccc3c2=O)cc1O)(C([2H])([2H])[2H])C([2H])([2H])[2H] [Compound I, N-(2-(tert-butyl)-5-hydroxy-4-(2-(methyl-d3)propan-2-yl-1,1,1,3,3,3-d6)phenyl)-4-oxo-1,4-dihydroquinoline-3-carboxamide]
- Safety and tolerability ([1]; 150 mg and 250 mg for 12 weeks): generally safe and well tolerated
- SwCl compared to ivacaftor baseline ([1]; 150 mg dose, week 12): decrease in SwCl
- Absolute change in SwCl at Week 12: LS mean difference vs Ivacaftor ([1]; 150 mg qd vs ivacaftor 150 mg q12h, week 12): 2.4
- Absolute change in SwCl at Week 12: LS mean (SE) ([1]; 150 mg qd, N = 23, week 12): 3.3
- SwCl at week 12 compared to the ivacaftor baseline ([1]; 250 mg dose): improvement in SwCl
- Absolute change in SwCl at Week 12: LS mean difference vs Ivacaftor ([1]; 250 mg qd vs ivacaftor 150 mg q12h, week 12): −7.3
- Absolute change in SwCl at Week 12: LS mean (SE) ([1]; 250 mg qd, N = 24, week 12): −6.5

Compound: CC(C)(C)c1cc(C(C)(C)C)c(NC(=O)c2c[nH]c3ccccc3c2=O)cc1O [Ivacaftor, reference compound]
- Absolute change in SwCl at Week 12: LS mean (SE) ([1]; 150 mg q12h, N = 11, week 12): 0.9

More lines, main results first:

- Polymorphic form stability ([2]; water activity ≤0.95 at ambient temperature): most stable polymorphic form
Compound: CC1(C)C[C@@H]2CCCNc3cccc(n3)S(=O)(=O)NC(=O)c3ccc(-n4ccc(OCCC5C6(CC6)C56CC6)n4)nc3N1C2 [Compound II free Form A, (14S)-8-[3-(2-{Dispiro[2.0.2.1]heptan-7-yl}ethoxy)-1H-pyrazol-1-yl]-12,12-dimethyl-2λ6-thia-3,9,11,18,23-pentaazatetracyclo[17.3.1.111,14.05,10]tetracosa-1(22),5,7,9,19(23),20-hexaene-2,2,4-trione]

- Polymorphic form stability ([2]; in IPA/water at water activity 0.1-0.95 from ambient temperature to 60° C.): most stable polymorphic form
- Stability among calcium salt hydrate forms ([2]; under certain conditions, such as in mixtures of ethanol and water): most stable form of calcium salt hydrate
Compound: CC1(C)C[C@@H]2CCCNc3cccc(n3)S(=O)(=O)NC(=O)c3ccc(-n4ccc(OCCC5C6(CC6)C56CC6)n4)nc3N1C2 [Compound II calcium salt hydrate Form D, (14S)-8-[3-(2-{Dispiro[2.0.2.1]heptan-7-yl}ethoxy)-1H-pyrazol-1-yl]-12,12-dimethyl-2λ6-thia-3,9,11,18,23-pentaazatetracyclo[17.3.1.111,14.05,10]tetracosa-1(22),5,7,9,19(23),20-hexaene-2,2,4-trione]

- Dissolution [3]: higher
- Exposure [3]: higher
- Solubility [3]: higher
Compound: CC1(C)C[C@@H]2CCCNc3cccc(n3)S(=O)(=O)NC(=O)c3ccc(-n4ccc(OCCC5C6(CC6)C56CC6)n4)nc3N1C2 [Compound II calcium salt hydrate Form A, (14S)-8-[3-(2-{Dispiro[2.0.2.1]heptan-7-yl}ethoxy)-1H-pyrazol-1-yl]-12,12-dimethyl-2λ6-thia-3,9,11,18,23-pentaazatetracyclo[17.3.1.111,14.05,10]tetracosa-1(22),5,7,9,19(23),20-hexaene-2,2,4-trione]
- Kinetic preference among calcium salt hydrate forms [2]: most kinetically favored calcium salt hydrate form

— patent US12186306B2, “Methods of treatment for cystic fibrosis” (Vertex Pharmaceuticals Incorporated, priority 2020, dated 2025)
